Entries after “also recorded” stand apart in the source; their conditions may differ.
Experiments:
DDAH promoter = DDAH promoter activation assay (DDAH promoter-Luciferase reporter); type: cell-based
Method: DDAH promoter activation assay. Activation of DDAH promoter was determined using a DDAH promoter-Luciferase reporter assay. DDAH promoter DNA sequence was cloned in pGL4.10 luciferase reporter plasmid. For transfection of HEK-293 cells, the cells were seeded in six well plates at a density of 2.0×10^5 cells/well. After 24 hours, the cells were transfected with the DDAH promoter plasmid by adding 200 ng DNA/well and incubated for 24 hours. Transfected cells were then transferred to 96 well plates at 50,000 cells/well and incubated overnight with various concentrations of the test compounds. The medium was removed from the wells and 20 μL of lysis reagent was added. After 5 min, 100 μL Luciferase assay reagent was added, and luminescence was measured.

DDAH-1 protein [1] = assay: DDAH western blot analysis in human pulmonary artery smooth muscle cells; type: cell-based; conditions: 24 hours
Method: (§1) DDAH and Collagen western blot analysis. Human umbilical vein endothelial cells (HUVEC), retinal endothelial cells and vascular smooth muscle cells from Lonza were transferred to 6 well plates at a density of 4.0×10^5/well and incubated overnight. Various concentrations of test compounds were then added. After 24 hours, medium was removed, the cells were scraped and collected in 50 μL of lysis buffer containing 50 mM Tris-HCl, 0.25% deoxycholic acid, 1% NP-40, 1 mM EDTA and protease inhibitor cocktails. Cell extract was subjected to SDS polyacrylamide gel electrophoresis. Proteins from the 12% polyacrylamide gels were transferred to PVDF membranes for westerns and blotted with DDAH or collagen 1 antibodies from Abcam.
(§2) Expression of DDAH was determined in human pulmonary artery smooth muscle cells (FIG. 1A) and human retinal microvascular endothelial cells (FIG. 1B). Cells were treated with different concentrations of VN-317. After 24 hours, cells were extracted in lysis buffer as described under methods. Extracts were subjected to SDS gel electrophoresis. Proteins from SDS gel were transferred to PVDF membrane and for western blotting using DDAH-1 antibodies. […] Therese data illustrate differential modulation of DDAH by VN-317 in different cell types.

DDAH-1 protein [2] = assay: DDAH western blot analysis in human retinal microvascular endothelial cells; type: cell-based; conditions: 24 hours
Method: as §1, §2

collagen 1 = assay: Collagen western blot analysis in myofibroblast like smooth muscle cells; type: cell-based; conditions: in response to TGF-beta, 48 hours
Method: as §1
Cells were treated with VN-317 in the presence or absence of TGF-beta. After 48 hours, cells were extracted in 50 ul lysis buffer and cell extract was subjected to SDS gel electrophoresis. Proteins from the 12% polyacrylamide gels were transferred to PVDF membranes for westerns and blotted collagen 1a antibodies from Abcam.

monocrotalin induced PAH = assay: Rat model of monocrotalin induced PAH; type: in vivo; conditions: 1 mg/kg s.c. once a day
Method: A rat model of monocrotalin induced PAH was used for in vivo studies. Male Sprague Dawley rats about 250 g were purchased from Charles river. PAH was induced by a single s.c. injection of 60 mg/kg monocrotalin. VN-317 (1 mg/kg) or vehicle was administered subcutaneously on day one and once a day thereafter. After 6 weeks, the disease development was determined by pulmonary artery (PA) pressure measurements, echocardiography, and histology. PA pressure was determined by right heart catheterization using a 1.4-F micromanometer-tipped Millar catheter with fluoroscopy guidance. Transthoracic echocardiography was performed using a GE vivid i with 5.0-13.0 MHz il2L-RS linear array transducer. Pulmonary artery acceleration time (PAAT) was measured using pulse-wave Doppler echocardiography with the sample volume centrally positioned in the PA distal to the pulmonary valve. M-mode was applied to measure the right ventricular cavity thickness during end diastole using the parasternal long-axis view obtained from the right side of the rat. Tissue and blood samples were collected at termination. Tissues were fixed in 10% formalin, embedded in paraffin, and then processed for histomorphometry. Macrophage in lung tissues were determined by immunostaining using CD68 antibodies.

[3] = Table 1, stilbene-based ADMA-modulating agents
[4] = Table 2, ADMA-lowering agents including heterocycles
[5] = Table 3, other ADMA-lowering agents
[6] = after 6 weeks, echocardiography

SMILES	EC50 (DDAH promoter; [3]) [nM]	EC50 (DDAH promoter; [4]) [nM]	other results
O=C(O)c1cccc(/C=C/c2ccc(O)cc2)c1 [VN-328, (E)-3-(4-hydroxystyryl)benzoic acid]	18.6	–	–
O=C(O)c1cccc(/C=C\c2cccc(OCCN3CCOCC3)c2)c1 [VN-388, (Z)-3-(3-(2-morpholinoethoxy)styryl)benzoic acid]	–	–	EC50 nM (DDAH promoter; [3]): Ambiguous
O=C(O)c1cccc(/C=C/c2cncs2)c1 [VN-367, (E)-3-(2-(thiazol-5-yl)vinyl)benzoic acid]	–	1060	–
O=C(O)c1cccc(/C=C/c2ccncc2)c1 [VN-355, (E)-3-(2-(pyridin-4-yl)vinyl)benzoic acid]	–	651	–
O=C(O)c1cccc(/C=C/c2cccc(OCCN3CCOCC3)c2)c1 [VN-362, (E)-3-(3-(2-morpholinoethoxy)styryl)benzoic acid]	1.3	–	–
Cc1ccccc1/C=C/c1cccc(C(=O)O)c1 [VN-329, (E)-3-(2-methylstyryl)benzoic acid]	8.7	–	–
O=C(O)c1cccc(/C=C/c2nccs2)c1 [VN-365, (E)-3-(2-(thiazol-2-yl)vinyl)benzoic acid]	–	180	–
O=C(O)c1cccc(/C=C\c2ccccc2)c1 [VN-339, (Z)-3-styrylbenzoic acid]	–	–	EC50 nM (DDAH promoter; [3]): Ambiguous
O=C(O)c1cccc(/C=C/c2cccnc2)c1 [VN-353, (E)-3-(2-(pyridin-3-yl)vinyl)benzoic acid]	–	58	–
O=C(O)c1cccc(/C=C/c2cccnc2)c1 [VN-354, (E)-3-(2-(pyridin-3-yl)vinyl)benzoic acid]	–	672	–
O=C(O)c1cccc(/C=C/c2ccc(OCCN3CCOCC3)cc2)c1 [VN-363, (E)-3-(4-(2-morpholinoethoxy)styryl)benzoic acid]	0.97	–	–
O=C(O)c1cccc([C@H]2C[C@@H]2c2ccccc2)c1 [VN-347, 3-((1S,2S)-2-phenylcyclopropyl)benzoic acid]	–	–	EC50 (DDAH promoter; [5]): 3.3 nM
COc1ccc(/C=C/c2cccc(C(=O)O)c2)c(C)c1 [VN-333, (E)-3-(4-methoxy-2-methylstyryl)benzoic acid]	1.8	–	–
O=C(O)c1cc(/C=C/c2ccccc2)ccc1O [VN-359, (E)-2-hydroxy-5-styrylbenzoic acid]	0.16	–	–
COc1ccc(/C=C\c2cccc(C(=O)O)c2)c(C)c1 [VN-342, (Z)-3-(4-methoxy-2-methylstyryl)benzoic acid]	81.5	–	–
O=C(O)c1cccc([C@@H]2C[C@@H]2c2ccccc2)c1 [VN-376, 3-((1R,2S)-2-phenylcyclopropyl)benzoic acid]	–	–	EC50 (DDAH promoter; [5]): 527 nM
O=C(O)c1cccc(/C=C/c2cscn2)c1 [VN-366, (E)-3-(2-(thiazol-4-yl)vinyl)benzoic acid]	–	1370	–
O=C(O)c1cccc(/C=C/c2cocn2)c1 [VN-351, (E)-3-(2-(oxazol-4-yl)vinyl)benzoic acid]	–	87	–
O=C(O)c1cccc(/C=C/c2ccccc2)c1 [VN-330, (E)-3-styrylbenzoic acid]	53	–	–
Cc1cc(O)ccc1/C=C/c1cccc(C(=O)O)c1 [VN-317, (E)-3-(4-hydroxy-2-methylstyryl)benzoic acid]	7	–	DDAH-1 protein expression (western blot) (DDAH-1 protein [1]): enhancing; also recorded: enhanced; DDAH-1 protein expression (western blot) (DDAH-1 protein [2]): reducing; also recorded: reduced; collagen production (western blot) (collagen 1): reduced; inflammation in the lung (CD68 immuno-staining) (monocrotalin induced PAH; after 6 weeks): dramatic reduction; also recorded: reduced; pulmonary artery medial thickening (histology) (monocrotalin induced PAH; after 6 weeks): open artery; also recorded: reduced; pulmonary artery pressure (PAP) (monocrotalin induced PAH; after 6 weeks): significantly reduced; vascular disease in the lung (monocrotalin induced PAH; after 6 weeks): reduced; pulmonary artery blood acceleration time (PAAT) (monocrotalin induced PAH; [6]): increased; right ventricle cavity thickness (monocrotalin induced PAH; [6]): reduced; body weight loss (monocrotalin induced PAH; over 6 weeks): prevented; mortality (monocrotalin induced PAH; until week 6, N=6): none and reduced

Now from value to molecule, other results behind:

EC50 (DDAH promoter; [3]) [nM]	EC50 (DDAH promoter; [4]) [nM]	SMILES	other results
–	0.79	O=C(O)c1cccc(/C=C/c2cccs2)c1 [VN-368, (E)-3-(2-(thiophen-2-yl)vinyl)benzoic acid]	–
–	1.23	O=C(O)c1cccc(/C=C/c2ccsc2)c1 [VN-369, (E)-3-(2-(thiophen-3-yl)vinyl)benzoic acid]	–
3.9	–	O=C(O)c1cccc(/C=C\c2ccc(Cl)cc2)c1 [VN-379, (Z)-3-(4-chlorostyryl)benzoic acid]	–
–	0.17	O=C(O)c1cccc(/C=C\c2cocn2)c1 [VN-380, (Z)-3-(2-(oxazol-4-yl)vinyl)benzoic acid]	–
1.4	–	O=C(O)c1cccc(/C=C/c2ccc(Cl)cc2)c1 [VN-371, (E)-3-(4-chlorostyryl)benzoic acid]	–
3.4	–	O=C(O)c1cccc(/C=C/c2ccc(F)cc2)c1 [VN-390, (E)-3-(4-fluorostyryl)benzoic acid]	–
–	0.73	O=C(O)c1cccc(/C=C\c2cccnc2)c1 [VN-381, (Z)-3-(2-(pyridin-3-yl)vinyl)benzoic acid]	–
–	0.76	O=C(O)c1cccc(/C=C\c2cccs2)c1 [VN-373, (Z)-3-(2-(thiophen-2-yl)vinyl)benzoic acid]	–
–	2.8	O=C(O)c1cccc(/C=C\c2cncs2)c1 [VN-386, (Z)-3-(2-(thiazol-5-yl)vinyl)benzoic acid]	–
10.4	–	O=C(O)c1cccc(/C=C\c2ccc(F)cc2)c1 [VN-372, (Z)-3-(4-fluorostyryl)benzoic acid]	–
–	1.7	O=C(O)c1cccc(/C=C\c2ccncc2)c1 [VN-387, (Z)-3-(2-(pyridin-4-yl)vinyl)benzoic acid]	–
